One compound from ChEMBL document CHEMBL5252536, “Discovery of VU0467485/AZ13713945: An M4 PAM Evaluated as a Preclinical Candidate for the Treatment of Schizophrenia” (ACS Med Chem Lett, 2017) can be followed below.

The test system of data set [1] is Rattus norvegicus. The experiment in a line: Reversal of MK-801-induced hyperlocomotion activity in rat at 10 to 30 mg/kg,po preincubated for 30 mins followed by MK-801 addition and measured after 60 mins by open field test relative to control. The format is functional. The note with it: dose 10-30 mg/kg, time 90 min, 1.5 h.
Data set [2] concerns the target T1, Cytochrome P450 3A4 (Homo sapiens, UniProt P08684). The experiment in a line: Inhibition of CYP34A in human liver microsomes using midazolam as substrate incubated for 15 mins in presence of NADPH by LC/MS/MS analysis. The format is ADME, Microsome.
Data set [3] has as its target T2, Muscarinic acetylcholine receptor M4 (Homo sapiens) (UniProt P08173).
T2 sequence (whole entry): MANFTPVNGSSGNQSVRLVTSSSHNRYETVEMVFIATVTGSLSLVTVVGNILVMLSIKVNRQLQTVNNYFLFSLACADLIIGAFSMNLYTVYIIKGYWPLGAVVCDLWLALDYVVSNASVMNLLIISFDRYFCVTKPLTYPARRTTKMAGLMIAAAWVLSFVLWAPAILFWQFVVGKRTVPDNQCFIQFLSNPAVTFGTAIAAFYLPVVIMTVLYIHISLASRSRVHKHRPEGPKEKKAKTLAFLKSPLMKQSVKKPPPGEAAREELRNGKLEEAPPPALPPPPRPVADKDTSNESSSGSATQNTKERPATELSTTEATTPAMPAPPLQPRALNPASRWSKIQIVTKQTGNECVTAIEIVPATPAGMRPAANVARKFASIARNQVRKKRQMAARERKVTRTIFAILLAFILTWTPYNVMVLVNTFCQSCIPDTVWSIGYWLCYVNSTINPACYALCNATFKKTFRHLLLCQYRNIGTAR
Briefly: Positive allosteric modulator activity at human M4 receptor expressed in CHO cells co-expressing Gqi5 assessed as maximal response to ACh by calcium mobilization assay relative to contol. The format is cell-based. The note with it: filed as positive allosteric modulator. For orientation: A change in cytosolic calcium serves as a functional read-out for many receptors and channels.

In data set [4] the target is T1, Cytochrome P450 3A4. The experiment in a line: […] of human CYP3A4 mediated drug metabolism incubated for 5 mins followed by NADPH addition measured after 1 hr by LC-UV/MS analysis relative to control. In kind it is ADME. The note with it: recombinant enzyme, 1.083 h, time 65 min.
Data set [5] can be described thus: Genotoxicity in Salmonella typhimurium TA100 by Ames test. The note with it: salmonella enterica subsp. enterica serovar typhimurium. The format is toxicity. Background: The Ames test detects mutagens through reverse mutation in bacteria.
Data set [6] in a line: Elimination half life in Sprague-Dawley rat at 3 mg/kg,po or 1 mg/kg,iv by LC-MS/MS analysis. In kind it is ADME, organism-based. The note with it: in vivo, read-out: beta t1/2 (converted).
Data set [7] is described as follows: Positive allosteric modulator activity at dog M4 receptor expressed in CHO cells co-expressing Gqi5 in presence of EC20 concentration of acetylcholine by calcium mobilization assay. The format is cell-based.
Data set [8] is described as follows: Clearance in Cynomolgous monkey plasma at 0.2 mg/kg,iv by LC-MS/MS analysis. The note with it: cynomolgus monkey.
For data set [9], the target named is T3, Muscarinic acetylcholine receptor M2 (Rattus norvegicus, UniProt P10980).
T3 sequence (P10980 whole entry): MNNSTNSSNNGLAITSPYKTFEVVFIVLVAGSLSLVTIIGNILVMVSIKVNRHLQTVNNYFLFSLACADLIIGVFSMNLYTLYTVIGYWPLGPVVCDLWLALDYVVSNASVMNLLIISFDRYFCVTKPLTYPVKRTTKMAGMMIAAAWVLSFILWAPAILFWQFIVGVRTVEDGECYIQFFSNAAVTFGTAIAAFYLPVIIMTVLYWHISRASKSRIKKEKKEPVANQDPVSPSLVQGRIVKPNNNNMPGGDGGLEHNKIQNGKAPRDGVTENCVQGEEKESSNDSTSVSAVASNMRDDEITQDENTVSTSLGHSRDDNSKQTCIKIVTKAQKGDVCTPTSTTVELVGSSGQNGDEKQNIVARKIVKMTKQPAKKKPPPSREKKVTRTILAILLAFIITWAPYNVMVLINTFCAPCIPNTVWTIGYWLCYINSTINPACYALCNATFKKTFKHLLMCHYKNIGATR
Briefly: Positive allosteric modulator activity at rat M2 receptor expressed in CHO cells co-expressing Gqi5 assessed as maximal response to ACh by calcium mobilization assay. The format is cell-based.

Data set [10] in a line: Plasma protein binding in rat assessed as unbound fraction incubated for 4 hrs by LC/MS/MS analysis. In kind it is ADME, cell-free.
Data set [11] can be described thus: Positive allosteric modulator activity at cynomolgus monkey M4 receptor expressed in CHO cells co-expressing Gqi5 in presence of EC20 concentration of acetylcholine by calcium mobilization assay. The format is cell-based. The note with it: Macaca fascicularis.
For data set [12], the target named is T4, Muscarinic acetylcholine receptor M2 (Homo sapiens, UniProt P08172).
T4 sequence (P08172 whole entry): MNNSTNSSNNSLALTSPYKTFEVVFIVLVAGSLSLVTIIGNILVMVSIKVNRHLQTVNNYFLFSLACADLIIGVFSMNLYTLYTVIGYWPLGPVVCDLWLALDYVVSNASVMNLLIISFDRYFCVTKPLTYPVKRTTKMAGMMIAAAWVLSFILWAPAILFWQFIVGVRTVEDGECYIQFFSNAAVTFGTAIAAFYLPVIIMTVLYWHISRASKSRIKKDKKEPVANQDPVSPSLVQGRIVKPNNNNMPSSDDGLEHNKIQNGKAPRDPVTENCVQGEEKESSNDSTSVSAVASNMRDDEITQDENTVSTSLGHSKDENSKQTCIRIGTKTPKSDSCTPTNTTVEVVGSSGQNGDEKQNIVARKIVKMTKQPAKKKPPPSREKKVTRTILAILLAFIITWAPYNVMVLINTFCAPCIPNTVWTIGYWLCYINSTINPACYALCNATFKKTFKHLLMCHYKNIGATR
Briefly: Positive allosteric modulator activity at human M2 receptor expressed in CHO cells co-expressing Gqi5 assessed as maximal response to ACh by calcium mobilization assay. In kind it is cell-based.

The nature of data set [13]: Cmax in Beagle dog at 3 mg/kg,po by LC-MS/MS analysis. In kind it is ADME, organism-based, Canis lupus familiaris. More on the design: dose 3 mg/kg, route po. The note with it: in vivo.
Data set [14] addresses Cytochrome P450 2C19 (Homo sapiens, UniProt P33261). The experiment in a line: […] of human CYP2C19 mediated drug metabolism incubated for 5 mins followed by NADPH addition measured after 1 hr by LC-UV/MS analysis relative to control. The format is ADME. The note with it: recombinant enzyme, 1.083 h, time 65 min.
A short description of data set [15]: Ratio of drug concentration in Sprague-Dawley rat brain to plasma at 1 to 10 mg/kg, po by LC-MS/MS analysis. The note with it: dose 1-10 mg/kg, read-out: BPR. The format is ADME, organism-based.
Data set [16] is described as follows: AUC (0 to infinity) in Beagle dog at 3 mg/kg,po by LC-MS/MS analysis. In kind it is ADME, organism-based, Canis lupus familiaris. More on the design: dose 3 mg/kg, route po. The note with it: in vivo.
Data set [17] is described as follows: Terminal unbound plasma concentration in rat model of amphetamine-induced hyperlocomotion activity at 1 to 10 mg/kg, po measured after 1.5 hrs. The note with it: in vivo, dose 1-10 mg/kg. In kind it is ADME, organism-based.

T1 sequence (P08684 whole entry): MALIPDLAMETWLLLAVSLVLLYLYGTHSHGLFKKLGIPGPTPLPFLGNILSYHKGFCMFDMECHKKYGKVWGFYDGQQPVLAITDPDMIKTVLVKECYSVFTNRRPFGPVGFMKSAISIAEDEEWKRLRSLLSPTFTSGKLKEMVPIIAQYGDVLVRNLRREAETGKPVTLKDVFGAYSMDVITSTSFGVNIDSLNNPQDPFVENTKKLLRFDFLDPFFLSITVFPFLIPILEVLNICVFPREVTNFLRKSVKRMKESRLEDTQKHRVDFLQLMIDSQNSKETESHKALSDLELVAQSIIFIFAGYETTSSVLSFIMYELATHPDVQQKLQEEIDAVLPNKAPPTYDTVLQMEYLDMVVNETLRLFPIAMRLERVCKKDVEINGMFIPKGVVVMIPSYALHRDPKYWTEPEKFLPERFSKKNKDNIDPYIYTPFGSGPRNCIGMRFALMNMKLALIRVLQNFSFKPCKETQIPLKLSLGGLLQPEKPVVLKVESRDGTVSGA
Chain of Cytochrome P450 2C19 (P33261 whole entry): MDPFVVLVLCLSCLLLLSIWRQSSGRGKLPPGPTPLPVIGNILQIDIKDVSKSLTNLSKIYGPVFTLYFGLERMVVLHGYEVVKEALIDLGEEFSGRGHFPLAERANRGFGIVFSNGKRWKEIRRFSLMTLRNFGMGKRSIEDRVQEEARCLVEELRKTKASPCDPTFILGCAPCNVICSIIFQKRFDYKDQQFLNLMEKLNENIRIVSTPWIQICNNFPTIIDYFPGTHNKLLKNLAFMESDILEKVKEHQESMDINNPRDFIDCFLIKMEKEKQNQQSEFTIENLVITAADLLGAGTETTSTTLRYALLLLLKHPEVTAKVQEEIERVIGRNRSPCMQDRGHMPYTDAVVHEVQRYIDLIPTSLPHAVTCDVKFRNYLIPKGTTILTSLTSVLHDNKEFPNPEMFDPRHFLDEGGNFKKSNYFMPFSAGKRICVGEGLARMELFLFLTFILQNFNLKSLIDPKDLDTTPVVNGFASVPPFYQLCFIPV

For the compound `COc1ccc(CNC(=O)c2sc3nnc(C)c(C)c3c2N)cc1F`, the Activity in data set [1] is 41.1%; in data set [3] it was 80.6%; in data set [3] (tested as the 2H-labelled form) it was 87.1%; in [4] it was 43.7%; in data set [5], “Non-Toxic”; in data set [14], 31.2%. For the same compound, in data set [2], the IC50 (usually the concentration that inhibits the measured activity by half) was more than 30000 nM. The half-life in [6] was 4.2 h. The concentration for a half-maximal effect (EC50) (as a rule, the concentration needed to bring the measured effect to its halfway point) is 87 nM in [7], more than 30000 nM in data set [9], 102 nM in data set [11] and more than 30000 nM in data set [12]. Also, the clearance (as a rule, a measure of how efficiently the substance is removed, as volume per time) in [8] was 25 mL/min/kg. Further, the free fraction (fraction unbound) (in general, the share of the substance not bound to proteins or other matrix) at 4 h in data set [10] came out at 0.031. For the same compound, in [13], the maximum concentration (Cmax) (as a rule, the maximum level reached in the sampled fluid or tissue) was found to be 220 nM. For the same compound, the Kp in data set [15] is 0.31. The AUC(0-inf) (usually the area under the concentration-time curve extrapolated to infinity) in data set [16] came out at 0.59 µM·h. For the same compound, in [17], the “Cp(f)” value came out at 60 nM.
